Values of other authors as cited in patent US20020013357A1, “Valdecoxib compositions” (priority 1999, published 2002).

solubility in water: extremely low solubility in water
SMILES: Cc1onc(-c2ccccc2)c1-c1ccc(S(N)(=O)=O)cc1 [Valdecoxib, 4-(5-methyl-3-phenyl-4-isoxazolyl)benzenesulfonamide]
